The record followed here is paper PMC11401813, “Grewiifopenes A–K, bioactive clerodane diterpenoids from Casearia grewiifolia Vent” (Natural Products and Bioprospecting, 2024).

Each structure is given as a SMILES string.

One series deals with T1, aromatase (CYP19) (Homo sapiens, UniProt P11511).
T1 construct: purchased
T1 sequence (P11511 1-503): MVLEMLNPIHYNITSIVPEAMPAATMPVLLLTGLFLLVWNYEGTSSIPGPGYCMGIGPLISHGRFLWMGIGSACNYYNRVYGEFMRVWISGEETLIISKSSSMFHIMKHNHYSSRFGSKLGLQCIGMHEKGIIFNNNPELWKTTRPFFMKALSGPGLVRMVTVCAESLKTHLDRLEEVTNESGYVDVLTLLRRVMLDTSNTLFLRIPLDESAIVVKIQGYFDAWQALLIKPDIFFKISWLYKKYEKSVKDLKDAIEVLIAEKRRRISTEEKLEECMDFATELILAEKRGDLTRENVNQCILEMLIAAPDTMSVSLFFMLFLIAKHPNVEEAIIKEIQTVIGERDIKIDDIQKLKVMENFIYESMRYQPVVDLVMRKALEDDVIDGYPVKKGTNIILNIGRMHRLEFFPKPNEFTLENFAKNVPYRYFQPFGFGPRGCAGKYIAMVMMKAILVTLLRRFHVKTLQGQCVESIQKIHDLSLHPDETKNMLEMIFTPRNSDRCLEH
As to the kind of experiment: Aromatase (CYP19) inhibition assay. It counts as biochemical. The procedure: (§1) In addition, the isolates were also evaluated for their antibacterial activity towards three strains including Bacillus cereus (ATCC 11778), Staphylococcus aureus (ATCC 6538) and Staphylococcus epidermidis (ATCC 12228) using penicillin G and gentamicin as the antibiotic controls (Table 5). […] Finally, the inhibitory activity of aromatase by using a CYP19 screening kit was investigated. The aromatase (also called estrogen synthase) is responsible for converting the non-aromatic ring A of androgens to estrogens, which are related to the proliferation of breast cancer cells.
The aromatase assay used a method previously designed by Stresser and co-workers.

The test system of series [1] is MOLT-3 (acute lymphoblastic leukemia). Put plainly: Cytotoxicity, XTT method, MOLT-3. The series is classed as cell-based. As to conditions: Homo sapiens; MOLT-3 cell line; XTT; mean ± s.d. (n = 3); read-out: IC50, MOLT-3. Here is the method:
(§2) The in vitro cytotoxicity assay toward a panel of human cancer cell lines of several clerodane diterpenoids has been well investigated. Thus, the isolates in adequate amounts were tested against MOLT-3 (acute lymphoblastic leukemia), HuCCA-1 (cholangiocarcinoma), HepG2 (hepatocellular carcinoma), A549 (lung adenocarcinoma), HeLa (cervical carcinoma), and MDA-MB-231 (triple negative breast cancer) cancer cell lines using the MTT and XTT methods. Doxorubicin and etoposide were used as positive controls.
(§3) The MTT (3-(4,5-dimethylthiazol-2-yl)-2,5-diphenyltetrazolium bromide) assay was employed for the cytotoxic evaluation against five human cancer cell lines, including HepG2, A549, MDA-MB-231, HeLa, and HuCCA-1, while the XTT (2,3-bis-(2-methoxy-4-nitro-5-sulphenyl)-(2H)-tetrazolium-5-carboxanilide) method was used for MOLT-3 cancer cell.
In general terms: Tetrazolium dyes change colour on reduction, which living cells bring about.

Series [2] has as its system HeLa (cervical carcinoma). Put plainly: Cytotoxicity, MTT assay, HeLa. As to conditions: HeLa cell line; MTT; mean ± s.d. (n = 3). The series is classed as cell-based, human. The procedure:
as §2, §3

In series [3] the test system is A549 (lung adenocarcinoma). As to the kind of experiment: Cytotoxicity, MTT assay, A549. It counts as cell-based, human. The note with it: A549 cell line, mean ± s.d. (n = 3). Here is the method: as §2, §3
In series [4] the test system is Staphylococcus epidermidis (ATCC 12228). As to the kind of experiment: Antibacterial broth microdilution (MIC/MBC), S. epidermidis. As to conditions: ATCC12228. It counts as cell-based. Here is the method:
as §1
(§4) The tested strains, Staphylococcus aureus (S. aureus) ATCC6538, Staphylococcus epidermidis (S. epidermidis) ATCC12228, and Bacillus cereus (B. cereus) ATCC11778 were obtained from the American Type Culture Collection (ATCC).
(§5) All tested species were grown on Mueller Hinton Agar (MHA) and incubated at 37 °C for 18–24 h. The bacterial colonies suspension in sterile normal saline was diluted until they reached a 1 × 10^6 CFC/mL concentration, which was then compared to the McFarland scale. This step provided a standard bacterial suspension (1 × 10^6 CFU/mL), which was used for the following assays.
(§6) The broth microdilution technique was used for the MIC and MBC determination, which was expressed according to Clinical and Laboratory Standards Institute (CLSI) standard M07 guideline. The compounds were prepared as a stock solution by dissolving in dimethyl sulfoxide (DMSO) with the concentration ranging from 0.195 to 200 µg/mL. DMSO and penicillin G or gentamicin were used as normal and standard drug control. […] Three replicates were performed for each experiment.
Background: In broth dilution the organism is exposed to a series of concentrations in liquid medium.

The subject of series [5] is Bacillus cereus (ATCC 11778). As to the kind of experiment: Antibacterial broth microdilution (MIC/MBC), B. cereus. The series is classed as cell-based. As to conditions: Bacillus cereus, ATCC11778. Here is the method: as §1, §4, §5, §6
Series [6] has as its system HepG2 (hepatocellular carcinoma). Put plainly: Cytotoxicity, MTT assay, HepG2. It counts as cell-based, human. As to conditions: HepG2 cell line; MTT; mean ± s.d. (n = 3). The procedure: as §2, §3
In series [7] the test system is Staphylococcus aureus (ATCC 6538). As to the kind of experiment: Antibacterial broth microdilution (MIC/MBC), S. aureus. The series is classed as cell-based. As to conditions: ATCC6538. Here is the method: as §1, §4, §5, §6
The subject of series [8] is MDA-MB-231 (triple negative breast cancer). As to the kind of experiment: Cytotoxicity, MTT assay, MDA-MB-231. It counts as cell-based, human. As to conditions: MDA-MB-231 cell line; MTT; mean ± s.d. (n = 3). Here is the method: as §2, §3
Series [9] deals with MOLT-3, HuCCA-1, HepG2, A549, HeLa, and MDA-MB-231 cancer cell lines. As to the kind of experiment: Cytotoxicity toward panel of human cancer cell lines (MTT and XTT). As to conditions: even at 50 µg/mL. The series is classed as cell-based. An excerpt:
The in vitro cytotoxicity assay toward a panel of human cancer cell lines of several clerodane diterpenoids has been well investigated. […] Doxorubicin and etoposide were used as positive controls.

The subject of series [10] is HuCCA-1 (cholangiocarcinoma). As to the kind of experiment: Cytotoxicity, MTT assay, HuCCA-1. It counts as cell-based, human. As to conditions: HuCCA-1 cell line; MTT; mean ± s.d. (n = 3). Here is the method: as §2, §3

The term inhibition denotes the share of the control response that was lost under treatment. As usually defined, the IC50 is the concentration that gives 50% inhibition. By MBC is commonly meant the lowest tested concentration that kills the bacteria rather than only halting them. Low readings indicate greater bactericidal potency, high ones weaker bactericidal potency. One may read the MIC as the lowest concentration found to suppress growth. The low end stands for greater potency, the high end for weaker potency. For the molecule `COc1cc([C@@H]2OC[C@@H]3[C@H]2CO[C@H]3c2cc(OC)c(O)c(OC)c2)cc(OC)c1O` [Compound 19, (−)-syringaresinol], at aromatase (CYP19) (at a concentration of 12.5 µM), the inhibition at 12.5 µM worked out at 17%. Further, the “Aromatase inhibitory activity (in words)” value on aromatase (CYP19) (at the concentration up to 12.15 µM) is recorded as “did not show activity”. For the same molecule, the IC50 in series [1] was found to be 75.3 ± 4.9 µM. Moreover, the “IC50, HeLa” value in series [2] is on record as “I (Inactive for cytotoxicity with < 50% inhibition at a concentration of 50 µg/mL)”. Moreover, the “IC50, A549” value in series [3] is recorded as “I (Inactive for cytotoxicity with < 50% inhibition at a concentration of 50 µg/mL)”. The minimal bactericidal concentration (MBC) in series [4], in series [5] and in series [7] was more than 200 µg/mL each time. The MIC in series [4], in series [5] and in series [7] was more than 200 µg/mL throughout. In addition, the “IC50, HepG2” value in series [6] was “I (Inactive for cytotoxicity with < 50% inhibition at a concentration of 50 µg/mL)”. In series [8], the “IC50, MDA-MB-231” value is “I (Inactive for cytotoxicity with < 50% inhibition at a concentration of 50 µg/mL)”. The “Cytotoxicity against all cell lines (in words)” value in series [9] was “inactive”. Also, the “IC50, HuCCA-1” value in [10] is “I (Inactive for cytotoxicity with < 50% inhibition at a concentration of 50 µg/mL)”.
